Experimental data as given in patent US9243039B2, “Bipartite inhibitors of bacterial RNA polymerase: Sal-target-inhibitor/nucleoside-analog-inhibitor conjugates” (priority 2012, dated 2016).

How the values were obtained:
[1] = test system: Escherichia coli D21f2toIC; assay: Antibacterial activity, broth microdilution, Escherichia coli D21f2tolC; format: cell-based; settings: minimal concentration resulting in ≧50% inhibition of bacterial growth
Description: (§1) Antibacterial activity was quantified using broth microdilution [Clinical and Laboratory Standards Institute (CLSUNCCLS), Methods for Dilution Antimicrobial Susceptibility Tests for Bacteria That Grow Aerobically; Approved Standard, Eighth Edition. CLIS Document M07-A8 (CLIS, Wayne Pa.), 2009]. Assays with Enterobacter cloacae ATCC 13047, Pseudomonas aeruginosa ATCC10145, and Escherichia coli D21f2to1C, employed a starting cell density of 2-5×10^5 cfu/ml, Mueller Hinton II cation adjusted broth (BD Biosciences, Inc.), and an air atmosphere. Assays with Haemophilus influenzae ATCC49247 and Neisseria gonorrhoeae ATCC 19424 employed a starting cell density of 2-5×10^5 cfu/ml, Haemophilus Test Medium broth (Barry et al., 1993) and a 5% CO2/95% air atmosphere. MIC50 was defined as the minimal concentration resulting in ≧50% inhibition of bacterial growth.

[2] = test system: Neisseria gonorrhoeae; assay: Antibacterial activity, broth microdilution, Neisseria gonorrhoeae; format: cell-based; settings: in words, Gram-negative bacterial pathogen
Description: as §1

[3] = test system: Haemophilus influenzae; assay: Antibacterial activity, broth microdilution, Haemophilus influenzae; format: cell-based; settings: in words, Gram-negative bacterial pathogen
Description: as §1

[4] = test system: Vero E6 ATCC CRL1586; assay: Cytotoxicity to mammalian cells in culture (CellTiter96); format: cell-based
Description: MICs for mammalian cells (Vero E6) in culture were quantified using CellTiter96 assay (Promega. Inc.; procedures as specified by the manufacturer). Screening data for SalA and SalB (compounds 1 and 2) and representative compounds of this invention (compounds 3-9) are presented in Tables 1-2: […]

[5] = target: Escherichia coli RNAP (Escherichia coli, UniProt P0A8T7+P0A8V2); assay: Fluorescence-detected RNAP assay, Escherichia coli RNAP; format: biochemical; settings: fluorescent-detected RNAP assays
Method: Fluorescence-detected RNAP assays with Escherichia coli RNAP were performed by a modification of the procedure of Kuhlman et al., 2004 [Kuhlman et al., Anal. Biochem. 324:183-190, 2004]. Reaction mixtures contained (20 μl): […] test compound, 75 nM Escherichia coli RNAP […] holoenzyme, 20 nM 384 by DNA fragment containing the bacteriophage T4 N25 promoter, 100 μM ATP, 100 μM GTP, 100 μM UTP, 100 μM CTP, 50 mM Tris-HCl, pH 8.0, 100 mM KCl, 10 mM MgCl2, 1 mM DTT, 10 μg/ml bovine serum albumin, and 5.5% glycerol. Reaction components other than DNA and NTPs were pre-incubated for 10 min at 37° C. Reactions were carried out by addition of DNA and incubation for 5 min at 37° C., followed by addition of NTPs and incubation for 60 min at 37° C. DNA was removed by addition of 1 μl 5 mM CaCl2 and 2 U DNaseI (Ambion, Inc.), followed by incubation for 90 min at 37° C. RNA was quantified by addition of 100 μl RiboGreen RNA Quantitation Reagent (Invitrogen, Inc.; 1:500 dilution in Tris-HCl, pH 8.0, 1 mM EDTA), followed by incubation for 10 min at 25° C., followed by measurement of fluorescence intensity [excitation wavelength=485 nm and emission wavelength=535 nm; QuantaMaster QM1 spectrofluorometer (PTI, Inc.)].
(§2) Half-maximal inhibitory concentrations (IC50s) were calculated by non-linear regression in SigmaPlot (SPSS, Inc.).

[6] = test system: Gram-positive bacterial pathogens; settings: in words, reported previously (Trischman 1994; Moore 1999); cited from earlier work
[7] = test system: Enterobacter cloacae ATCC 13047; assay: Antibacterial activity, broth microdilution, Enterobacter cloacae; format: cell-based
Description: as §1

[8] = test system: human RNAP I/II/III; assay: Radiochemical assay with human RNAP I, II and III (HeLaScribe nuclear extract); format: biochemical
Method: Radiochemical assays with human RNAP I, II, and III were performed essentially as described [Sawadogo and Roeder, Cell 43:165-75, 1985]. Reaction mixtures contained (20 μl): 0-100 μM test compound, 8 U HeLaScribe Nuclear Extract (Promega, Inc.), 1 μg human placental DNA (Sigma-Aldrich), 400 μM ATP, 400 μM [α^32P]UTP (0.11 Bq/fmol), 400 μM CTP, 400 μM GTP, 50 mM Tris-HCl, pH 8.0, 7 mM HEPES-NaOH, 70 mM (NH4)2SO4, 50 mM KCl, 12 mM MgCl2, 5 mM DTT, 0.1 mM EDTA, 0.08 mM phenylmethylsulfonyl fluoride, and 16% glycerol. Reaction components other than DNA and NTPs were pre-incubated 10 min at 30° C., DNA was added and reaction mixtures were incubated 15 min at 30° C., NTPs were added and reaction mixtures were incubated 60 min at 30° C. Reaction mixtures were spotted on DE81 filter discs (Whatman, Inc.; pre-wetted with water) and incubated 1 min at room temperature. Filters were washed with 3×3 ml Na2HPO4, 2×3 ml water, and 3 ml ethanol, using a filter manifold (Hoefer, Inc.). Filters were placed in scintillation vials containing 10 ml Scintiverse BD Cocktail (Thermo Fisher, Inc.), and radioactivity was quantified by scintillation counting (LS6500; Beckman-Coulter, Inc.).
as §2

[9] = test system: Gram-positive and Gram-negative bacterial RNAP; settings: in words, reported previously (Miao et al. 1997); cited from earlier work
[10] = test system: Pseudomonas aeruginosa; assay: Antibacterial activity, broth microdilution, Pseudomonas aeruginosa; format: cell-based; settings: in words, Gram-negative bacterial pathogen
Description: as §1

[11] = test system: mutants resistant to other RNAP inhibitors; settings: Ebright et al., WO/2012/129173; cited from earlier work
[12] = test system: mutants resistant to other RNAP inhibitors; settings: disclosed herein
[13] = test system: RNAP; assay: Mechanism of inhibition of RNAP by Sal; format: biochemical; settings: in words

Chain of Escherichia coli RNAP (P0A800 whole entry, the tested form may be a part): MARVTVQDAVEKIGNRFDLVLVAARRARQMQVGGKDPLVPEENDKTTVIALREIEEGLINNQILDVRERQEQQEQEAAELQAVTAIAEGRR
Chain of Escherichia coli RNAP (P00579 whole entry, further chain, the tested form may be a part): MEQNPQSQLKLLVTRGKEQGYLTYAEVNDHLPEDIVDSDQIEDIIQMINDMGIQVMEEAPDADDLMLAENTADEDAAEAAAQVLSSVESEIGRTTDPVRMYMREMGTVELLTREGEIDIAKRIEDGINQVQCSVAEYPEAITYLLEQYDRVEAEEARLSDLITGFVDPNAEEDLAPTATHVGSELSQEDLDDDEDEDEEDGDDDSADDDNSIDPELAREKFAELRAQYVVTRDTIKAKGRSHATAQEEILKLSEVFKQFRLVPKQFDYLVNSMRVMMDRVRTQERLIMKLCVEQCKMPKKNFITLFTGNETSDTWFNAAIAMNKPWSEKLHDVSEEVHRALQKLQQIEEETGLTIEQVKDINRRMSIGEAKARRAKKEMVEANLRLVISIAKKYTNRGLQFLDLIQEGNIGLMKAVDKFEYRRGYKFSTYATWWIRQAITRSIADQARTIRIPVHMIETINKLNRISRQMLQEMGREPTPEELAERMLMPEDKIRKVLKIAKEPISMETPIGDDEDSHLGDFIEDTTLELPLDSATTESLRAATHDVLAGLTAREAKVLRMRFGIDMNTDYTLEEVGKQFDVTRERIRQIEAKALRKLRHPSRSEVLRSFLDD
Chain of Escherichia coli RNAP (P0A8V2 whole entry, the tested form may be a part): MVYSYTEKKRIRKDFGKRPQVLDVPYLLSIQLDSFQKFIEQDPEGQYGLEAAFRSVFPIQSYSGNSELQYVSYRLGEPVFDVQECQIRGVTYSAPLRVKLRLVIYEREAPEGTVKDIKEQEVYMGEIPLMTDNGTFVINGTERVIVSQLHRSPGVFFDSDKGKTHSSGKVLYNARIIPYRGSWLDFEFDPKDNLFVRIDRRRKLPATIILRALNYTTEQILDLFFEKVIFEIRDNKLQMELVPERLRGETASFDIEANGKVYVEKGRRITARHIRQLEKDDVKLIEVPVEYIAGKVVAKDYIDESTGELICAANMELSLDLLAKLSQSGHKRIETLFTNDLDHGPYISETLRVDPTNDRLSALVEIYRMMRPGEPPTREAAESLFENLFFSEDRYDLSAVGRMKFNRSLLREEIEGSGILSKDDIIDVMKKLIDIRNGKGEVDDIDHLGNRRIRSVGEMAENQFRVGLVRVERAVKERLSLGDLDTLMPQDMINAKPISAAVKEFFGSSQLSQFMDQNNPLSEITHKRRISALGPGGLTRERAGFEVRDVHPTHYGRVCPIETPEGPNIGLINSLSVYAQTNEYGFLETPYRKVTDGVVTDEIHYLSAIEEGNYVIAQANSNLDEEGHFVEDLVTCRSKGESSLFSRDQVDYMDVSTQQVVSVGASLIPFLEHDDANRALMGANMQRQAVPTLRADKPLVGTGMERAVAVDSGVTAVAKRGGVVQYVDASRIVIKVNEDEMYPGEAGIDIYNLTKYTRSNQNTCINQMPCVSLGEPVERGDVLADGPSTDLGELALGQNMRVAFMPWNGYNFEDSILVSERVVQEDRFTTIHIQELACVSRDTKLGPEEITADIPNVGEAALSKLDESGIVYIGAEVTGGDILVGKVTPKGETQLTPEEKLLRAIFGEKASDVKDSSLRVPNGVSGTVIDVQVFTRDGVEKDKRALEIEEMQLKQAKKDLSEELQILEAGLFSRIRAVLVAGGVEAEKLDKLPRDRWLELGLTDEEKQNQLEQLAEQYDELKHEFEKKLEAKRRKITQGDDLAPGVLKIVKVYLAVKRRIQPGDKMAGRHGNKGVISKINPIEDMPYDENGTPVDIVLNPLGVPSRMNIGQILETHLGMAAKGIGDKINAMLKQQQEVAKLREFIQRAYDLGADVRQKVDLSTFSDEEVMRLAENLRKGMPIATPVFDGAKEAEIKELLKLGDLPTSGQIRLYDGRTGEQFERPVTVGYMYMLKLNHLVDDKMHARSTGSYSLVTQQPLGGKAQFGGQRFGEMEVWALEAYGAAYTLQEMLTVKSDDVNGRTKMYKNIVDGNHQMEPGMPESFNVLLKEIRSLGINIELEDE
Chain of Escherichia coli RNAP (P0A8T7 whole entry, the tested form may be a part): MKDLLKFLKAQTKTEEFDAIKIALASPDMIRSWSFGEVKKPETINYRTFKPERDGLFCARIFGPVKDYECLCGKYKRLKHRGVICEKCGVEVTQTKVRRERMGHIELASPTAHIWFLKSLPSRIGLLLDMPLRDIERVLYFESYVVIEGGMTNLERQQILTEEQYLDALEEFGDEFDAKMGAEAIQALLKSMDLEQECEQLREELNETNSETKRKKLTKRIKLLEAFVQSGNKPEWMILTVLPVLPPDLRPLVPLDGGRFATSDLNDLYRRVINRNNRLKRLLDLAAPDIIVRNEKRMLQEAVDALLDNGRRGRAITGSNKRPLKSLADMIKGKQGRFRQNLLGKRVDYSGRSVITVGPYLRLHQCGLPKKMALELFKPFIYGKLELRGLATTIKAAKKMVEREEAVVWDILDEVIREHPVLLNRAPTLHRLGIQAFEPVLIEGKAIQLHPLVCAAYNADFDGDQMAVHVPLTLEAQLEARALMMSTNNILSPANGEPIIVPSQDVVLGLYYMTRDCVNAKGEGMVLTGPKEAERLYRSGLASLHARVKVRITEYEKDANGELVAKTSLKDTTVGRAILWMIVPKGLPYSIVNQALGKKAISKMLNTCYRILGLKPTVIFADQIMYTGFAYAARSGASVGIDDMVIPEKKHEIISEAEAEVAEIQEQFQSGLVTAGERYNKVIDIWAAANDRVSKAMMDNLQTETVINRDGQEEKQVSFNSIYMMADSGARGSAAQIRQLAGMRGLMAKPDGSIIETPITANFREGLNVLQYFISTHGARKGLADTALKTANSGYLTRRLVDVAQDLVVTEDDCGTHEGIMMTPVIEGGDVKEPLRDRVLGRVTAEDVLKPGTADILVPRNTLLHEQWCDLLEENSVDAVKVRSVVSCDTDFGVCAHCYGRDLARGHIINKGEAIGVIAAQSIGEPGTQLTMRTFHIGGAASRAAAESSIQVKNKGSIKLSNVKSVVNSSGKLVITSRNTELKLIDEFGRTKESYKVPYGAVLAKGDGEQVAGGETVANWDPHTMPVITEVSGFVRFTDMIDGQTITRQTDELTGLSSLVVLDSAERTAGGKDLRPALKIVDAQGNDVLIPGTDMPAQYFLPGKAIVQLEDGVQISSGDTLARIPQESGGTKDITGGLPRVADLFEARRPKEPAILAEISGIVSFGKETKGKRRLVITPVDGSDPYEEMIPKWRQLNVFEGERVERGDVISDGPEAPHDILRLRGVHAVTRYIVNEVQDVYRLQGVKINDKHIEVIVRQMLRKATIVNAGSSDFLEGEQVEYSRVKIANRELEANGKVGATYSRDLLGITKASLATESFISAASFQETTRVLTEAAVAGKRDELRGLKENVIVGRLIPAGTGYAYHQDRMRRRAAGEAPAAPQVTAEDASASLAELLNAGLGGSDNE
Chain of Escherichia coli RNAP (P0A7Z4 whole entry, further chain, the tested form may be a part): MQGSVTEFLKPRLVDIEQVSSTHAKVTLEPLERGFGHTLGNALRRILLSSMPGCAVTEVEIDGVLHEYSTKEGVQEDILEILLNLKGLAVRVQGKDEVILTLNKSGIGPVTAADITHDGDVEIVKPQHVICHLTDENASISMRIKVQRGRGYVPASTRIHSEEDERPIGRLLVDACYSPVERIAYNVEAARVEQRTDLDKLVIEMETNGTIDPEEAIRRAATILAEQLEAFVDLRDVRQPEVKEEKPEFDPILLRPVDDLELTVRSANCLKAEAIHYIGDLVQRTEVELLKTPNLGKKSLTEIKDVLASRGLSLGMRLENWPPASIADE

## Salinamide A [SalA (1)]
[1]
  MIC50 Escherichia coli D21f2toIC: 0.024 µg/mL
[2]
  antibacterial activity against Neisseria gonorrhoeae: exhibit antibacterial activity
[3]
  antibacterial activity against Haemophilus influenzae: exhibit antibacterial activity
[4]; in words
  inhibition of growth of mammalian cells in culture: do not detectably inhibit growth
[4]; mammalian cells in culture
  MIC50 Vero E6 ATCC CRL1586: >100 µg/mL
[5]
  IC50: 1000 nM
[6]
  antibacterial activity against Gram-positive bacterial pathogens: exhibit antibacterial activity
[7]; in words, Gram-negative bacterial pathogen
  antibacterial activity against Enterobacter cloacae: exhibit antibacterial activity
[7]; minimal concentration resulting in ≧50% inhibition of bacterial growth
  MIC50 Enterobacter cloacae ATCC 13047: 1.56 µg/mL
[8]
  IC50: > 100000 nM
[8]; in words
  inhibition of human RNAP I, II, and III: do not detectably inhibit
[9]
  inhibition of Gram-positive and Gram-negative bacterial RNAP in vitro: inhibits
[10]
  antibacterial activity against Pseudomonas aeruginosa: exhibit antibacterial activity
[11]
  cross-resistance to Sal of CBR703-resistant mutants: not cross-resistant
  cross-resistance to Sal of rifamycin-resistant mutants: not cross-resistant
[12]
  cross-resistance to Sal of streptolydigin-resistant, myxopyronin-resistant, and lipiarmycin-resistant mutants: do not exhibit cross-resistance
[13]
  inhibition of formation of the RNAP-promoter open complex in transcription initiation: does not inhibit
  inhibition of nucleotide addition in both transcription initiation and transcription elongation: inhibits
  inhibition of wild-type RNAP versus RNAP-derivative having a deletion of the trigger loop: equal extents
  mode of transcription inhibition with respect to NTP substrate: noncompetitive
